Data taken from paper PMC4872110 (Nucleic Acids Research, 2016).

Tests used:
SsTsr3 [1] = target: T1, SsTsr3 (Saccharolobus solfataricus, UniProt Q9UWV6); test: tryptophan fluorescence quenching; assay type: binding
T1 sequence (Q9UWV6 1-166): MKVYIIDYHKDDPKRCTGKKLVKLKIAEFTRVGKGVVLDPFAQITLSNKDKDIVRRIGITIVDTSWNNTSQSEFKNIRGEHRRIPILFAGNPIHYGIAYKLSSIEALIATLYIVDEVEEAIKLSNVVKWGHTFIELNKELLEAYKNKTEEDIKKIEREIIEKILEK

VdTsr3 = VdTsr3 (Vulcanisaeta distributa, UniProt E1QU22); conditions: co-purified endogenous E. coli SAM
VdTsr3, sequence (E1QU22 whole entry): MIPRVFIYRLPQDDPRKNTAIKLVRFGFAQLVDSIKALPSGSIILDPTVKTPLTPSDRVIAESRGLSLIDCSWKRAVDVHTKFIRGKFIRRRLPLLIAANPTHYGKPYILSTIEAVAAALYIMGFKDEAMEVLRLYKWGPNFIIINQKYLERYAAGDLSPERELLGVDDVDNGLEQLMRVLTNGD

SsTsr3 [2] = target: SsTsr3 (Saccharolobus solfataricus, UniProt Q9UWV6, D63A); test: biochemical
SsTsr3 (Saccharolobus solfataricus, UniProt Q9UWV6, D63A), sequence (Q9UWV6 whole entry D63A): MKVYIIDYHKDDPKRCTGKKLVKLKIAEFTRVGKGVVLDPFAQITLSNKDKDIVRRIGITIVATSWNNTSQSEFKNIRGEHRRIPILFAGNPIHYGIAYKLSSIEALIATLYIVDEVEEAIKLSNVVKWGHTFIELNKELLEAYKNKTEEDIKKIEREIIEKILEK

SsTsr3 [3] = target: SsTsr3 (Saccharolobus solfataricus, UniProt Q9UWV6, T17A); test: biochemical
SsTsr3 (Saccharolobus solfataricus, UniProt Q9UWV6, T17A), sequence (Q9UWV6 whole entry T17A): as the sequence (Q9UWV6 whole entry D63A) above, with T17A, A63D counted along it

SsTsr3 [4] = target: SsTsr3 (Saccharolobus solfataricus, UniProt Q9UWV6, T17D); test: biochemical
SsTsr3 (Saccharolobus solfataricus, UniProt Q9UWV6, T17D), sequence (Q9UWV6 whole entry T17D): as the sequence (Q9UWV6 whole entry D63A) above, with T17D, A63D counted along it

SsTsr3 [5] = target: T2, SsTsr3 (Sulfolobus solfataricus, UniProt Q9UWV6 1-166); test: fluorescence anisotropy
T2 sequence: T1 sequence (Q9UWV6 1-166)

| Molecule | Kd (SsTsr3 [1]) [µM] | X-ray crystal structure, 1.6 Å (Se-SAD) (VdTsr3) | Kd (SsTsr3 [2]) [µM] | Kd (SsTsr3 [3]) [µM] | Kd (SsTsr3 [4]) [µM] | Kd (SsTsr3 [5]) [µM] |
| --- | --- | --- | --- | --- | --- | --- |
| C[S+](CC[C@H](N)C(=O)O)C[C@H]1O[C@@H](n2cnc3c(N)ncnc32)[C@H](O)[C@@H]1O (stereo partly drawn) [SAM] | 6.5 | VdTsr3 was purified and crystallized in complex with endogenous (E. coli) SAM | 11 | 3900 | 11200 | – |
| UUUUUUUUU (ssRNA) [oligo-U9 RNA] | – | – | – | – | – | 6 |
